Measured values: US9822147B2, “Methods of treating ophthalmic diseases using NPR-B agonists” (priority 2009, dated 2017)
Numbered stars: 1 amine (or outer) side, 2 acyl side, 3 side chain; on linkers, the order of the positions; unused ones are H or OH. Square brackets hold non-standard residues; d marks the D form. Peptide text beside a SMILES is read from it. * marks the point of attachment. X14 = NCC(=O)N[C@@H]1C[C@@H](C(=O)[*:2])N([*:1])C1; Phe(3-CF3) = N[C@@H](Cc1cccc(C(F)(F)F)c1)C(=O)O; X4 = NCCCN[C@@H]1C[C@@H](C(=O)[*:2])N([*:1])C1; X12 = CC(C)(C)CNC[C@@H](N[*:1])C(=O)[*:2]; Phe(4-Me) = Cc1ccc(C[C@H](N)C(=O)O)cc1; Pro(4R-NH2) = N[C@H]1CN[C@H](C(=O)O)C1; dLys(Me2) = CN(C)CCCC[C@@H](N)C(=O)O; dOrn(Me2) = CN(C)CCC[C@@H](N)C(=O)O; X2 = O=C([C@H]1CCCN([*:1])C1)[*:2]; dDap(Me2) = CN(C)C[C@@H](N)C(=O)O; Hyp = O=C(O)[C@@H]1C[C@@H](O)CN1; tBuAla = CC(C)(C)C[C@H](N)C(=O)O; NHcycloheptyl = C1CCCC(N*)CC1; NMeL = CN[C@@H](CC(C)C)C(=O)O; dOrn = NCCC[C@@H](N)C(=O)O; Octanoyl = CCCCCCCC(=O)*; Api = NC1(C(=O)O)CCNCC1

molecular target: T1, NPR-B (Homo sapiens, UniProt P20594); experiment: NPR-B induced production of cyclic GMP in human glaucoma trabecular meshwork cells (GTM-3); assay type: cell-based; details: group by EC50 and Emax (CNP = 100%); Table 4; read-out: Activity (group), NPR-B activation assayed with GTM-3 cells
T1 construct: a functional assay using endogenously NPR-B expressing GTM-3 cells; endogenous in cells; host or cells: GTM-3 (human glaucoma trabecular meshwork cells)
T1 sequence (P20594 23-1047): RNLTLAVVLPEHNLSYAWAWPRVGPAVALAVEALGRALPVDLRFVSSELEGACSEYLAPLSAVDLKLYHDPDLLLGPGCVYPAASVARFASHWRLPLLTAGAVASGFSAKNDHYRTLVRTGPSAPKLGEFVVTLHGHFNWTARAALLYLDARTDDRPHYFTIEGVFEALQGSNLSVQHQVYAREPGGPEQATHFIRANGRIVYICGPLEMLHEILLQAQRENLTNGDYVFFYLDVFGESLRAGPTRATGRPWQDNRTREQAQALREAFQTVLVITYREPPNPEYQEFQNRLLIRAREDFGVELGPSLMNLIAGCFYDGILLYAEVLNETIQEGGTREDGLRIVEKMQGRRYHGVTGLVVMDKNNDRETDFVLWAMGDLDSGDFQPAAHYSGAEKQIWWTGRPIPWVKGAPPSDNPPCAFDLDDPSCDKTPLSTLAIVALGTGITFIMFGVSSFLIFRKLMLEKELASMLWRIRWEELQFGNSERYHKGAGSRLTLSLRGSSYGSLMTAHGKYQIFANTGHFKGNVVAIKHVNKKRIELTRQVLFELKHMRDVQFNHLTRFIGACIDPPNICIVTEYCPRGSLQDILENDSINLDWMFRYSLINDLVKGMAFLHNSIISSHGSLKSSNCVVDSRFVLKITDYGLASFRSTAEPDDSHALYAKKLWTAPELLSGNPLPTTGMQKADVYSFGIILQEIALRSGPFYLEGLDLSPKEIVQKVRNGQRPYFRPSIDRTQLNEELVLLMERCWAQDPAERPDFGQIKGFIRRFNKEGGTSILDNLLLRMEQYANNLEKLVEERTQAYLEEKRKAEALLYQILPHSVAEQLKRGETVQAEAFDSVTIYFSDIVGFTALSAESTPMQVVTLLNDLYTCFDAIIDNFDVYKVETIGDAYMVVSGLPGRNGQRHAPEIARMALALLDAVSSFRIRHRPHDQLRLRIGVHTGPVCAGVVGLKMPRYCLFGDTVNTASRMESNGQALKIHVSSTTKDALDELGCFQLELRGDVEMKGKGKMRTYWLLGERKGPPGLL

EC50, < 1 µM:
CCCCCCCC(=O)N[C@H](C)C(=O)N[C@@H](Cc1ccccc1)C(=O)N[C@H](CN(C)C)C(=O)N[C@@H](CC(C)C)C(=O)N1C[C@H](N)C[C@H]1C(=O)N(C)[C@@H](CC(C)C)C(=O)N[C@@H](CC(=O)O)C(=O)N1CCC[C@H]1C(=O)N[C@H](C(N)=O)[C@@H](C)CC [JAL-1453, Occ-ala-Phe-dap(Me2)-Leu-Tap-Nml-Asp-Pro-Ile-NH2] (Octanoyl-[dA]F[dDap(Me2)]L[Pro(4R-NH2)][NMeL]DPI-NH2)
CCCCCCCC(=O)N1CCC[C@H](C(=O)N[C@@H](Cc2ccccc2)C(=O)N[C@H](CC(C)C)C(=O)N[C@@H](CC(C)C)C(=O)N2C[C@H](O)C[C@H]2C(=O)N[C@@H](CC(C)(C)C)C(=O)N[C@@H](CC(=O)O)C(=O)N2CCC[C@H]2C(=O)NC2CCCCCC2)C1 [JAL-1595, Occ-Sni-Phe-leu-Leu-Hyp-Npg-Asp-Pro-Che] (Octanoyl-[X2]F[dL]L[Hyp][tBuAla]DP-NHcycloheptyl)
CCCCCCCC(=O)N1CCC[C@H](C(=O)N[C@@H](Cc2ccccc2)C(=O)N[C@H](CCCN(C)C)C(=O)N[C@@H](CC(C)C)C(=O)N2C[C@H](O)C[C@H]2C(=O)N(C)[C@@H](CC(C)C)C(=O)N[C@H](C(=O)N[C@@H](CCCNC(=N)N)C(=O)NC2CCCCCC2)[C@@H](C)O)C1 [JAL-1895, Occ-Sni-Phe-orn(Me2)-Leu-Hyp-Nml-Thr-Arg-Che] (Octanoyl-[X2]F[dOrn(Me2)]L[Hyp][NMeL]TR-NHcycloheptyl)
CCCCCCCC(=O)N[C@H](C)C(=O)N[C@@H](Cc1ccccc1)C(=O)N[C@H](CO)C(=O)N[C@@H](CC(C)C)C(=O)N1C[C@H](O)C[C@H]1C(=O)N(C)[C@@H](CC(C)C)C(=O)N[C@@H](CC(=O)O)C(=O)N[C@@H](CCCNC(=N)N)C(=O)N[C@H](C(N)=O)[C@@H](C)CC [JAL-1252, Occ-ala-Phe-ser-Leu-Hyp-Nml-Asp-Arg-Ile-NH2] (HELM PEPTIDE1{[CCCCCCCC(=O)[*:2]].[dA].F.[dS].L.[Hyp].[meL].D.R.I.[am]}$$$$V2.0)
CCCCc1cnc(Nc2ccc(C(=O)N[C@@H](Cc3ccccc3)C(=O)N[C@H](CC(C)C)C(=O)N[C@@H](CC(C)C)C(=O)N3C[C@H](O)C[C@H]3C(=O)N(C)[C@@H](CC(C)C)C(=O)N[C@@H](CC(=O)O)C(=O)N[C@@H](CCCNC(=N)N)C(=O)N[C@H](C(N)=O)[C@@H](C)CC)cc2)s1 [JAL-1380, (AR-201-68)-Phe-leu-Leu-Hyp-Nml-Asp-Arg-Ile-NH2] (HELM PEPTIDE1{[CCCCc1cnc(Nc2ccc(C(=O)[*:2])cc2)s1].F.[dL].L.[Hyp].[meL].D.R.I.[am]}$$$$V2.0)
CCCCCCCC(=O)N1CCC[C@H](C(=O)N[C@@H](Cc2ccccc2)C(=O)N[C@H](CC(C)C)C(=O)N[C@@H](CC(C)C)C(=O)N2C[C@H](NC(=O)CN)C[C@H]2C(=O)N(C)[C@@H](CC(C)C)C(=O)N[C@@H](CC(=O)O)C(=O)N[C@@H](CCCNC(=N)N)C(=O)N[C@H](C(N)=O)[C@@H](C)CC)C1 [JAL-1322, Occ-Sni-Phe-leu-Leu-Tap(G)-Nml-Asp-Arg-Ile-NH2] (Octanoyl-[X2]F[dL]L[X14][NMeL]DRI-NH2)
CCCCCCCC(=O)N1CCC[C@H](C(=O)N[C@@H](Cc2cccc(C(F)(F)F)c2)C(=O)N[C@H](CC(C)C)C(=O)N[C@@H](CC(C)C)C(=O)N2C[C@H](O)C[C@H]2C(=O)N(C)[C@@H](CC(C)C)C(=O)N[C@@H](CC(=O)O)C(=O)N[C@@H](CCCNC(=N)N)C(=O)N[C@H](C(N)=O)[C@@H](C)CC)C1 [JAL-1621, Occ-Sni-Mtf-leu-Leu-Hyp-Nml-Asp-Arg-Ile-NH2] (Octanoyl-[X2][Phe(3-CF3)][dL]L[Hyp][NMeL]DRI-NH2)
CCCCCCCC(=O)N1CCC[C@H](C(=O)N[C@@H](Cc2ccccc2)C(=O)N[C@H](CCCN)C(=O)N[C@@H](CC(C)C)C(=O)N2C[C@H](N)C[C@H]2C(=O)N(C)[C@@H](CC(C)C)C(=O)N[C@@H](CC(=O)O)C(=O)N[C@@H](CCCNC(=N)N)C(=O)N[C@H](C(N)=O)[C@@H](C)CC)C1 [JAL-1318, Occ-Sni-Phe-orn-Leu-Tap-Nml-Asp-Arg-Ile-NH2] (Octanoyl-[X2]F[dOrn]L[Pro(4R-NH2)][NMeL]DRI-NH2)
CCCCCCCC(=O)N1CCC[C@H](C(=O)N[C@@H](Cc2ccccc2)C(=O)N[C@H](CC(C)C)C(=O)N[C@@H](CC(C)C)C(=O)N2CCC[C@H]2C(=O)N(C)[C@@H](CC(C)C)C(=O)N[C@@H](CC(=O)O)C(=O)N[C@@H](CCCNC(=N)N)C(=O)N[C@H](C(N)=O)[C@@H](C)CC)C1 [JAL-1040, Occ-Sni-Phe-leu-Leu-Pro-Nml-Asp-Arg-Ile-NH2] (HELM PEPTIDE1{[CCCCCCCC(=O)[*:2]].[O=C([C@H]1CCCN([*:1])C1)[*:2]].F.[dL].L.P.[meL].D.R.I.[am]}$$$$V2.0)
CCCCCCCC(=O)N[C@H](C)C(=O)N[C@@H](Cc1ccccc1)C(=O)NC1(C(=O)N[C@@H](CC(C)C)C(=O)N2C[C@H](N)C[C@H]2C(=O)N(C)[C@@H](CC(C)C)C(=O)N[C@@H](CC(=O)O)C(=O)N2CCC[C@H]2C(=O)N[C@H](C(N)=O)[C@@H](C)CC)CCNCC1 [JAL-1452, Occ-ala-Phe-Apc-Leu-Tap-Nml-Asp-Pro-Ile-NH2] (Octanoyl-[dA]F[Api]L[Pro(4R-NH2)][NMeL]DPI-NH2)
CCCCCCCC(=O)N1CCC[C@H](C(=O)N[C@@H](Cc2ccccc2)C(=O)N[C@H](CCCNC(=N)N)C(=O)N[C@@H](CC(C)C)C(=O)N2C[C@H](N)C[C@H]2C(=O)N(C)[C@@H](CC(C)C)C(=O)N[C@@H](CC(=O)O)C(=O)N[C@@H](CCCNC(=N)N)C(=O)N[C@H](C(N)=O)[C@@H](C)CC)C1 [JAL-1317, Occ-Sni-Phe-arg-Leu-Tap-Nml-Asp-Arg-Ile-NH2] (Octanoyl-[X2]F[dR]L[Pro(4R-NH2)][NMeL]DRI-NH2)
CCCCCCCC(=O)N1CCC[C@H](C(=O)N[C@@H](Cc2ccc(C)cc2)C(=O)N[C@H](CC(C)C)C(=O)N[C@@H](CC(C)C)C(=O)N2C[C@H](O)C[C@H]2C(=O)N(C)[C@@H](CC(C)C)C(=O)N[C@@H](CC(=O)O)C(=O)N[C@@H](CCCNC(=N)N)C(=O)N[C@H](C(N)=O)[C@@H](C)CC)C1 [JAL-1494, Occ-Sni-Pmf-leu-Leu-Hyp-Nml-Asp-Arg-Ile-NH2] (Octanoyl-[X2][Phe(4-Me)][dL]L[Hyp][NMeL]DRI-NH2)
CCCCCCCC(=O)N[C@H](C)C(=O)N[C@@H](Cc1ccccc1)C(=O)N[C@H](CCCNC(=N)N)C(=O)N[C@@H](CC(C)C)C(=O)N1C[C@H](O)C[C@H]1C(=O)N[C@@H](CC(C)(C)C)C(=O)N[C@@H](CC(=O)O)C(=O)N[C@@H](CCCNC(=N)N)C(=O)N[C@H](C(N)=O)[C@@H](C)CC [JAL-1225, Occ-ala-Phe-arg-Leu-Hyp-Npg-Asp-Arg-Ile-NH2] (HELM PEPTIDE1{[CCCCCCCC(=O)[*:2]].[dA].F.[dR].L.[Hyp].[CC(C)(C)C[C@H](N[*:1])C(=O)[*:2]].D.R.I.[am]}$$$$V2.0)
CCCCCCCC(=O)N1CCC[C@H](C(=O)N[C@@H](Cc2ccccc2)C(=O)N[C@H](CCCCN(C)C)C(=O)N[C@@H](CC(C)C)C(=O)N2C[C@H](O)C[C@H]2C(=O)N(C)[C@@H](CC(C)C)C(=O)N[C@@H](CC(=O)O)C(=O)N[C@@H](CCCNC(=N)N)C(=O)NC2CCCCCC2)C1 [JAL-1777, Occ-Sni-Phe-lys(Me2)-Leu-Hyp-Nml-Asp-Arg-Che] (Octanoyl-[X2]F[dLys(Me2)]L[Hyp][NMeL]DR-NHcycloheptyl)
CCCCCCCC(=O)N[C@H](C)C(=O)N[C@@H](Cc1ccccc1)C(=O)N[C@H](CNCC(C)(C)C)C(=O)N[C@@H](CC(C)C)C(=O)N1C[C@H](N)C[C@H]1C(=O)N(C)[C@@H](CC(C)C)C(=O)N[C@@H](CC(=O)O)C(=O)N[C@@H](CCCNC(=N)N)C(=O)N[C@H](C(N)=O)[C@@H](C)CC [JAL-1463, Occ-ala-Phe-dap(1464)-Leu-Tap-Nml-Asp-Arg-Ile-NH2] (Octanoyl-[dA]F[X12]L[Pro(4R-NH2)][NMeL]DRI-NH2)
CCCCCCCC(=O)N1CCC[C@H](C(=O)N[C@@H](Cc2ccccc2)C(=O)N[C@H](CC(C)C)C(=O)N[C@@H](CC(C)C)C(=O)N2C[C@H](NCCCN)C[C@H]2C(=O)N(C)[C@@H](CC(C)C)C(=O)N[C@@H](CC(=O)O)C(=O)N[C@@H](CCCNC(=N)N)C(=O)N[C@H](C(N)=O)[C@@H](C)CC)C1 [JAL-1372, Occ-Sni-Phe-leu-Leu-Tap(Ap)-Nml-Asp-Arg-Ile-NH2] (Octanoyl-[X2]F[dL]L[X4][NMeL]DRI-NH2)
